Results: patent US20050079231A1, “Use of ingested sublimed sulfur for the restoration of lactose tolerance in humans with the medical disorder of lactose intolerance” (priority 1999, published 2005)

How the values were obtained:
[1] = test system: patients with positive baseline lactose tolerance tests; test: Standard lactose tolerance test, baseline vs post-treatment; assay type: in vivo, humans
Method: (§1) From May 1998 through April 2002, 41 patients (22 with clinical and 19 with both clinical and laboratory evidence of severe lactose intolerance) were treated with sublimed sulfur (USP) and a restricted lactose diet for a mean of 3.6 (standard deviation [SD] 3.4) weeks, followed by a regular diet and sublimed sulfur for a mean of 5.8 (SD 5.0) weeks. Quantitative comparisons were made between baseline and post-treatment symptoms in all patients and standard lactose tolerance test results in a subset of 19 patients with positive baseline lactose tolerance tests.

[2] = test system: patients with clinical lactose intolerance; test: Treatment of lactose-intolerant patients with sublimed sulfur: clinical symptoms, baseline vs post-treatment; assay type: in vivo, humans
Method: as §1

[3] = limited course of treatment, conclusion

[S] [sublimed sulfur]
patients who converted from intolerant to tolerant test results ([1]; 9 of 19 patients): 47% | serum glucose level versus baseline in the lactose tolerance test ([1]; at 30 minutes, t=2.81, p=0.01): increased significantly above baseline | serum glucose level versus baseline in the lactose tolerance test ([1]; at 60 minutes, t=2.58, p=0.02): increased significantly above baseline | lactase activity [1, 3]: significant increase | patients who remained asymptomatic after a second course of treatment ([2]; 13 of 17 patients whose symptoms redeveloped): 76% | patients who became clinically asymptomatic after treatment ([2]; 17 of the subset of 19 patients with positive baseline lactose tolerance tests): 89% | patients who remained symptom-free after one course of treatment ([2]; 20 of the remaining 39 patients): 51% | patients who became asymptomatic during treatment ([2]; 39 of 41 patients, sublimed sulfur with restricted lactose diet, then regular diet): 95% | overall relapse rate ([2]; after one course of treatment, confidence interval in brackets): 0.46 (confidence interval 0.32-0.61) | median symptom-free period after discontinuation of sublimed sulfur ([2]; human, in vivo): 76 weeks | lactose tolerance [2, 3]: restored lactose tolerance for prolonged periods
